Reference: patent US6525056B2, “Heterocyclyl-substituted ring-fused pyridines and pyrimidines as corticotropin releasing hormone (CRH) antagonists, useful for treating cns and stress-related disorders” (Bristol-Myers Squibb Company, priority 1997, dated 2003)

| melting point | SMILES |
| --- | --- |
| 136 to 138 °C | COCC[C@@H](COC)n1nnc2c(N3CCc4cc(Br)cc(Br)c43)nc(C)cc21 [Example 1, (S)-4-(5,7-Dibromo-2,3-dihydro-1H-indol-1-yl)-1-[1-(methoxymethyl)-3-methoxypropyl]-6-methyl-1H-1,2,3-triazolo[4,5-c]pyridine] |
| 145 to 146 °C | Cc1nc(N2CCc3cc(Cl)cc(Cl)c32)c2c(C)nn(Cc3ccccc3)c2n1 [Example 414] |
